Patent US20220117945A1, “ISOXAZOLE CARBOXAMIDE COMPOUNDS AND USES THEREOF” (NOVARTIS AG, priority 2017, published 2022)

Test system: Atoh1 expression in mouse cerebellar neural precursor cells
Experiment: Atoh1 induction assay in mouse cerebellar neural precursor cells (NPCs), Atoh1-GFP reporter
Assay type: cell-based
Conditions: 10 doses 50 μM to 200 nM, 72 hours treatment, DMSO control = 1, more than 5 considered significant, read-out: fold difference (maximum fold difference of GFP average intensity in cell nuclei over the DMSO control)
Experimental: Compounds of the present disclosure were assessed for their ability to increase the Atoh1 expression in mouse cerebellar neural precursor cells. The ability of compounds of the present disclosure to induce new hair cell formation was assessed in ex vivo hair cell induction assay using 6-day-postnatal mouse cochlea explants with hair cell damage.
Atoh1 Induction Assay in Mouse Cerebellar Neural Precursor Cells (NPCs)
Atoh1 induction assay was conducted with in vitro cultured cerebellar neural precursor cells isolated from neonatal transgenic Atoh1-GFP mice. Atoh1 expression is mainly regulated by the enhancer, and the nuclear GFP was driven by the cloned enhancer sequence at 3′ of Atoh1 which had high conservation among mammalians. So Atoh1 induction could be reflected by GFP activation in cerebellar neural precursor cells (Helms et al., Development 2000; 127: 1185-1196; Lumpkin et al., Gene Expression Patterns 2003; 3: 389-395). Postnatal 3 days pups were dissected for cerebellum tissue isolation. The cerebellum tissue was cut into small pieces, and dissociated with 0.05% Trypsin for about 10 minutes at 37° C., and then filtered with a 70 uM cell strainer. The cells were cultured as neuropsheres for the first 2 days in ultra-low attachment dish/well-plate with DMEM/F12+1% N2 &2% B27 with 1% P/S, 20 ng/ml rhFGF2 and 20 ng/ml rhEGF (R&D Systems). Then the spheres were plated to the matrigel (1:30 diluted in DMEM/F12)-coated tissue culture dish for monolayer culture. After 4.5-5.5 days culture in vitro (DIV), cells were dissociated with 0.05% trypsin into single cells, and frozen after cell number calculation.
The cerebellar neural precursor cells (NPCs) were re-thawed from stock and cultured for another 2 days before used for Atoh1 induction assay. On the first day of assay, NPCs were seeded into matrigel-coated 384 well plates (Black view-plate, PE) at 2500 cells/well. After over-night culture, the NPCs were treated with representative compounds of the present disclosure with 1:2 serial dilutions for 10 doses, from 50 μM to 200 nM, with DMSO as negative control. After 72 hours treatment without medium change, the cells were fixed with 4% formalin for staining. Assay plates were stained with GFP antibody (Abcam, #13970, 1:1000) to amplify endogenous GFP signal and then read by Cellomics.

In order of rising maximal fold induction:
1. O=C1CCN(CCCCCNC(=O)c2cc(-c3cccs3)on2)C1 [Example 26, N-(5-(3-Oxopyrrolidin-1-yl)pentyl)-5-(thiophen-2-yl)isoxazole-3-carboxamide]  7.1
2. CNC(=O)N1CCN(CCCCCNC(=O)c2cc(-c3cccs3)on2)CC1 [Example 25, N-(5-(4-(Methylcarbamoyl)piperazin-1-yl)pentyl)-5-(thiophen-2-yl)isoxazole-3-carboxamide]  10.1
3. CC(=O)C1CN(CCCCCNC(=O)c2cc(-c3cccs3)on2)C1 [Example 93, N-(5-(3-Acetylazetidin-1-yl)pentyl)-5-(thiophen-2-yl)isoxazole-3-carboxamide]  12.4
4. N#CCCOC(=O)NC1CN(CCCCCNC(=O)c2cc(-c3cccs3)on2)C1 [Example 21, 2-Cyanoethyl (1-(5-(5-(thiophen-2-yl)isoxazole-3-carboxamido)pentyl)azetidin-3-yl)carbamate]  13
5. O=C(NCCCCCN1CCC(F)(F)CC1)c1cc(-c2cccs2)on1 [Example 31]  16
6. CNC(=O)NC1CN(CCCCCNC(=O)c2cc(-c3cccs3)on2)C1 [Example 18, N-(5-(3-(3-Methylureido)azetidin-1-yl)pentyl)-5-(thiophen-2-yl)isoxazole-3-carboxamide]  17.6
7. CN(C)C(=O)C1CN(CCCCCNC(=O)c2cc(-c3cccs3)on2)C1 [Example 46]  18
8. CN1C[C@H]2C[C@@H]1CN2CCCCCNC(=O)c1cc(-c2cccs2)on1 [Example 60]  18.7
9. O=C(NCCCCCN1CC(C(=O)NCCO)C1)c1cc(-c2ccc(F)cc2)on1 [Example 90, 5-(4-Fluorophenyl)-N-(5-(3-((2-hydroxyethyl)carbamoyl)azetidin-1-yl)pentyl)isoxazole-3-carboxamide]  19.1
10. NC(=O)C1CN(CCC(F)(F)CCNC(=O)c2cc(-c3ccc(F)cc3)on2)C1 [Example 76, N-(5-(3-Carbamoylazetidin-1-yl)-3,3-difluoropentyl)-5-(4-fluorophenyl)isoxazole-3-carboxamide]  20.4
11. CNC(=O)C1CN(CCCCCNC(=O)c2cc(-c3ccc(F)cc3)on2)C1 [Example 85, 5-(4-Fluorophenyl)-N-(5-(3-(methylcarbamoyl)azetidin-1-yl)pentyl)isoxazole-3-carboxamide]  20.7
12. O=C(NCCCCCN1CC2(COC2)C1)c1cc(-c2cccs2)on1 [Example 34]  20.8
13. O=C(NCCCCCN1CCNCC1)c1cc(-c2cccs2)on1 [Example 3, N-(5-(Piperazin-1-yl)pentyl)-5-(thiophen-2-yl)isoxazole-3-carboxamide]  21
14. C[C@H]1CN(CCCCCNC(=O)c2cc(-c3cccs3)on2)C[C@H](C)O1 [Example 43]  21.5
15. O=C(NCCCCCN1CC(c2ncc[nH]2)C1)c1cc(-c2cccs2)on1 [Example 95, N-(5-(3-(1H-imidazol-2-yl)azetidin-1-yl)pentyl)-5-(thiophen-2-yl)isoxazole-3-carboxamide]  21.8
16. O=C(NCCCCCN1CCN2CCCC2C1)c1cc(-c2cccs2)on1 (centres unmarked) [Example 41]  21.9
17. COC1CN(CCCCCNC(=O)c2cc(-c3ccc(F)cc3)on2)C1 [Example 68]  22.3
18. O=C(NCCCCCN1CCNC(c2ccccc2)C1)c1cc(-c2cccs2)on1 (centres unmarked) [Example 1, N-(5-(3-Phenylpiperazin-1-yl)pentyl)-5-(thiophen-2-yl)isoxazole-3-carboxamide]  22.4
19. O=C(NCCCCCN1CC(C(=O)NCCO)C1)c1cc(-c2cccs2)on1 [Example 78, N-(5-(3-((2-Hydroxyethyl)carbamoyl)azetidin-1-yl)pentyl)-5-(thiophen-2-yl)isoxazole-3-carboxamide]  23.1
20. O=C(NCCCCCN1CCCC(F)C1)c1cc(-c2cccs2)on1 (centres unmarked) [Example 50]  23.4
21. COC(=O)N1CCN(CCCCCNC(=O)c2cc(-c3cccs3)on2)CC1 [Example 24, Methyl 4-(5-(5-(thiophen-2-yl)isoxazole-3-carboxamido)pentyl)piperazine-1-carboxylate]  24
22. N#CCNC(=O)C1CN(CCCCCNC(=O)c2cc(-c3cccs3)on2)C1 [Example 77, N-(5-(3-((Cyanomethyl)carbamoyl)azetidin-1-yl)pentyl)-5-(thiophen-2-yl)isoxazole-3-carboxamide]  24.1
23. CNC(=O)NC1CN(CCCCCNC(=O)c2cc(-c3ccc(F)cc3)on2)C1 [Example 23, 5-(4-Fluorophenyl)-N-(5-(3-(3-methylureido)azetidin-1-yl)pentyl)isoxazole-3-carboxamide]  25.7
24. O=C(NCCCCCN1CC(CO)C1)c1cc(-c2ccc(F)cc2)on1 [Example 33]  26.1
25. O=C(NCCCCCN1CCC(F)C1)c1cc(-c2cccs2)on1 (centres unmarked) [Example 32]  26.8
26. O=C(NCCCCCN1CC(c2ncc[nH]2)C1)c1cc(-c2ccc(F)cc2)on1 [Example 71]  26.8
27. N#CCCNC(=O)C1CN(CCCCCNC(=O)c2cc(-c3ccc(F)cc3)on2)C1 [Example 87, N-(5-(3-((2-Cyanoethyl)carbamoyl)azetidin-1-yl)pentyl)-5-(4-fluorophenyl)isoxazole-3-carboxamide]  27.8
28. O=C(NCCCCCN1CC2CC1CN2)c1cc(-c2cccs2)on1 (centres unmarked) [Example 4, N-(5-(2,5-Diazabicyclo[2.2.1]heptan-2-yl)pentyl)-5-(thiophen-2-yl)isoxazole-3-carboxamide]  30.7
29. O=C(NCCCCCN1CCCC1)c1cc(-c2cccs2)on1 [Example 7, N-(5-(Pyrrolidin-1-yl)pentyl)-5-(thiophen-2-yl)isoxazole-3-carboxamide]  31
30. CS(=O)(=O)NC1CN(CCCCCNC(=O)c2cc(-c3cccs3)on2)C1 [Example 19, N-(5-(3-(Methylsulfonamido)azetidin-1-yl)pentyl)-5-(thiophen-2-yl)isoxazole-3-carboxamide]  31.7
31. O=C(NCCCCCN1CC(C(=O)NC2CCC(O)C2)C1)c1cc(-c2cccs2)on1 (centres unmarked) [Example 82, N-(5-(3-((3-Hydroxycyclopentyl)carbamoyl)azetidin-1-yl)pentyl)-5-(thiophen-2-yl)isoxazole-3-carboxamide]  31.9
32. O=C(NCCCCCN1CC2(COC2)C1)c1cc(-c2ccc(F)cc2)on1 [Example 69]  33.5
33. CNC(=O)C1CN(CCCCCNC(=O)c2cc(-c3cccs3)on2)C1 [Example 61, N-(5-(3-(methylcarbamoyl)azetidin-1-yl)pentyl)-5-(thiophen-2-yl)isoxazole-3-carboxamide]  33.7
34. O=C(NCCCCCN1CC(C(=O)N[C@H]2CCC[C@@H]2O)C1)c1cc(-c2ccc(F)cc2)on1 [Example 91, 5-(4-Fluorophenyl)-N-(5-(3-(((1S,2S)-2-hydroxycyclopentyl)carbamoyl)azetidin-1-yl)pentyl)isoxazole-3-carboxamide]  34.5
35. N#CCCNC(=O)C1CN(CCCCCNC(=O)c2cc(-c3cccs3)on2)C1 [Example 84, N-(5-(3-((2-Cyanoethyl)carbamoyl)azetidin-1-yl)pentyl)-5-(thiophen-2-yl)isoxazole-3-carboxamide]  35.1
